Data taken from US11591306B2, “Vitamin E-based amphipathic compound, and use thereof” (Industry-University Cooperation Foundation Hanyang …, priority 2017, dated 2023).

What was measured:
LHI-RC complex = tested on: T1, LHI-RC complex; assay: LHI-RC structural stability, UV-Vis absorbance at 875 nm; design: species or system R. capsulatus; details: CMC+0.04 wt % or CMC+0.2 wt %, 20 days at 25° C.
T1 construct: His tag (only implied by Ni2+-NTA capture and imidazole elution; put on M from own knowledge of pUHTM86Bgl); made in house; host or cells: R. capsulatus U43 [pUHTM86Bgl] membranes
Description: An experiment was conducted to evaluate the ability of VEGs to stabilize the structure of LHI-RC. The photosynthetic superassembly consists of a complex of light-Harvesting complex I (LHI) and a reaction center (RC). The structural stability of LHI-RC was measured by a method of monitoring the structure of a protein for 20 days using UV-Vis spectroscopy. As amphipathic molecules, all VEGs of the present invention and conventional amphipathic molecules DDM and OG were used, and the concentrations of the amphipathic molecules were measured at CMC+0.04 wt % (FIG. 5A) and CMC+0.2 wt % ([…]), and the stability of the LHI-RC protein was investigated according to the concentration of an amphipathic molecule.
Specifically, LHI-RC stability was measured using a method disclosed in the paper published in 2008 by the inventors (P. S. Chae et al., ChemBioChem 2008, 9, 1706-1709). […] A 10 mL aliquot of the solution of the frozen R. capsulatus membrane was homogenized using a glass homogenizer, and incubated with gentle stirring at 32° C. for 30 minutes. The homogenized membrane was treated with 1.0 wt % DDM for 30 minutes at 32° C. […] Protein stability was measured at regular intervals during the cubation by measuring UV-Vis spectra of the samples in the range of 650 to 950 nm. Protein integrity was evaluated by monitoring absorbance (A875) at 875 nm.

UapA = UapA (Emericella nidulans, UniProt Q07307, G411V); assay: UapA extraction and thermal stability by fluorescence size exclusion chromatography (FSEC); design: made in house
Description: The membrane containing UapA was resuspended in a pH 8.0 PBS buffer containing 10 mM imidazole, 150 mM NaCl and 10% glycerol, and a protein concentration was measured. The membrane was adjusted to a concentration of 1 mg/ml, and a 1 ml aliquot was incubated for 60 minutes with each of 1.0 mL of DDM, LMNG, VEG-3 and VEG-5, on ice under stirring. A 100 uL aliquot was obtained from each tube and subjected to ultracentrifugation for 10 minutes at 150,000 g, and then fluorescent SEC (FSEC) was performed on each sample. The remaining soluble fractions were incubated for 10 minutes at 45° C. The thermally-treated samples were applied to FSEC to monitor the integrity of a transporter. FSEC was performed using a Superose6 column (GE Healthcare) equilibrated with a buffer containing an appropriate preparation (DDM, LMNG, VEG-3 or VEG-5).

β2AR = target: T2, β2AR (Homo sapiens, UniProt P07550); assay: β2AR stability, [3H]-dihydroalprenolol (DHA) ligand binding; details: CMC+0.2 wt %, 10 days at room temperature
T2 construct: made in house; host or cells: Sf9 insect cells, baculovirus
Description: A receptor was expressed in Sf9 insect cells infected with Baculovirus and solubilized in 1% DDM. The DDM-solubilized receptor was purified by alprenolol-sepharose in the presence of 0.01% cholesteryl succinate (CHS). β2AR purified by DDM was diluted with a buffer containing DDM or VEGs (VEG-1, VEG-2, VEG-3 and VEG-5) to reach the final concentration of CMC+0.2 wt %. β2AR solubilized in each compound was stored for 10 days at room temperature, and the ligand binding ability of the receptor was measured at regular intervals by incubating the receptor with 10 nM radioactive [^3H]-dihydroalprenolol (DHA) for 30 minutes at room temperature. The mixture was loaded into a G-50 column, and a supernatant was collected using a certain amount of binding buffer (supplemented with […] pH 7.5, 100 mM NaCl, 0.5 mg/ml BSA). In addition, a 15 ml scintillation fluid was added. Receptor-binding [^3H]-DHA was measured using a scintillation counter (Beckman).

β2AR-Gs complex = target: T3, β2AR-Gs complex (Homo sapiens, UniProt P07550); assay: Negative stain EM analysis of β2AR-Gs complex; details: complex purified by VEG-3
T3 construct: made in house
Description: A β2AR-Gs protein complex was prepared for electron microscopy using a conventional negative staining protocol, and imaged at room temperature using a Tecnai T12 electron microscope operated at 120 kV according to a low-dose procedure. Images recorded at a magnification of 71,138× and a defocus value of approximately −1.1 urn on a Gatan US4000 CCD camera. All images were binned (2×2 pixels) to obtain a pixel size of 4.16 Å at a specimen level. Particles were manually […] using e2boxer (part of the EMAN2 software suite). 2D reference-free alignment and classification of particle projections were performed using ISAC. 23,035 projections of β2AR-Gs were subjected to ISAC producing 19 classes consistent in two-way matching and 5401 particle projections.

[1] = Hydrodynamic radius of micelles by dynamic light scattering (DLS); assay type: physicochemical; details: at 1.0 wt %
Description: A method of measuring the radius of a micelle is not particularly limited, but may be a method well known in the art, for example, dynamic light scattering (DLS).
(§1) To identify the properties of VEGs synthesized according to the synthetic methods of Preparation Examples 1 to […] molecular weights (M.W.) and critical micellar concentrations (CMCs) of VEGs, and the hydrodynamic radii (Rh) of formed micelles were measured.
(§2) Specifically, the CMCs were measured using hydrophobic fluorescence staining and diphenylhexatriene (DPH), and the hydrodynamic radii (Rh) of the micelles formed by each formulation were measured by dynamic light scattering (DLS).

[2] = Critical micelle concentration by hydrophobic fluorescence staining with diphenylhexatriene (DPH); assay type: physicochemical; details: aqueous solution
Description: A method of measuring CMC is not particularly limited, and may be a method widely known in the art, for example, fluorescent staining using diphenylhex riene (DPH).
as §1, §2

## Cc1c(C)c2c(c(C)c1OCC(=O)NC(CO[C@@H]1OC(CO)[C@@H](O[C@H]3OC(CO)[C@@H](O)[C@H](O)C3O)[C@H](O)C1O)CO[C@@H]1OC(CO)[C@@H](O[C@H]3OC(CO)[C@@H](O)[C@H](O)C3O)[C@H](O)C1O)CCC(C)(CCCC(C)CCCC(C)CCCC(C)C)O2 (some centres unmarked) [VEG-3]
LHI-RC complex
  Ability to maintain the integrity of the LHI-RC complex (A875): most excellent effect
UapA; 45° C. for 10 minutes
  UapA integrity after thermal treatment (FSEC): maintained protein integrity
UapA; before thermal treatment, 60 minutes on ice
  Ability to extract and solubilize UapA (FSEC): LMNG and DDM were superior to VEG-3 and VEG-5
β2AR
  Long-term β2AR activity ([3H]-DHA binding): consistently maintained during incubation for 10 days
β2AR-Gs complex
  Homogeneity of β2AR-Gs complex particles (negative stain EM): highly homogeneous
[1]
  Rh (nm), hydrodynamic radius of micelles: 4.8 ± 0.1 nm
[2]
  CMC: ~0.002 mM
  CMC (wt %): ~0.0002 wt %
